Data from US20200046737A1, “METHODS FOR TREATING CANCER, AND COMPOSITIONS THEREFOR” (Notable Labs, Inc., priority 2018, published 2020).

Columns and labels:
CD38 [1] = assay: 72-hour ex vivo assay, CD38 upregulation in MDS and AML cancer patient samples; type: cell-based, human; details: subset of MDS and AML cancer patient samples
Excerpt: (§1) The ex vivo detection of CD38 upregulation using the 72-hour ex vivo assay was clinically validated by trial sites, which compared CD38 expression on leukemic blasts before enrollment and at the beginning of cycle two on SY-1425.

CD38 [2] = assay: Clinical validation by trial sites, CD38 expression on leukemic blasts of patients on drug; type: in vivo, human; details: before enrollment versus beginning of cycle two
Excerpt: as §1

CD126 = assay: Ex vivo flow cytometry priming assay, CD126 surface marker expression on AML patient samples; type: cell-based, human; details: AML Patient 3
Method: (§2) 12 primary AML patient samples were assayed for priming response using a High-Throughput Phenotypic Screening Platform. Samples were treated with 70 priming compounds (either FDA approved compounds or compounds in clinical development). […] This process was repeated on bone marrow aspirate and peripheral blood from 3 healthy donors.

CD24 = assay: Ex vivo flow cytometry priming assay, CD24 surface marker expression on AML patient samples; type: cell-based, human; details: AML Patient 3
Method: as §2

CD15 = assay: Ex vivo flow cytometry priming assay, CD15 surface marker expression on AML patient samples; type: cell-based, human; details: FIG. 3, three-day incubation
PD-L1 = assay: Ex vivo flow cytometry priming-tuning assay, PD-L1 expression on AML patient samples; type: cell-based, human; details: FIG. 3, three-day incubation

Q: Which “CD38 upregulation after exposure” value (CD38 [1]) does the source give for CC1(C)CCC(C)(C)c2cc(NC(=O)c3ccc(C(=O)O)cc3)ccc21 [SY-1425] here?
A: Its value is “upregulation”.

Q: What about the “CD38 expression on leukemic blasts” value (CD38 [2]) of the same molecule?
A: The value was “upregulated”.

Q: For CC1=C(/C=C/C(C)=C/C=C/C(C)=C/C(=O)O)C(C)(C)CCC1 [Tretinoin], which “expression of CD126” value (CD126) is on record?
A: The value was “little effect”.

Q: And the “expression of CD24” value (CD24)?
A: The value was “little effect”.

Q: How did the CD15 expression (CD15) turn out when Cc1c(-c2ccc(-c3ccccc3F)cc2)nc2ccc(F)cc2c1C(=O)O [Brequinar Sodium] was run?
A: Its CD15 expression is “increase”.

Q: And the PD-L1 expression (PD-L1)?
A: The PD-L1 expression was “increase”.
